Key:
[1] = test system: GP2d cells (KRAS G12D); experiment: Cell-based pERK HTRF assay in GP2d cell (Biological Example 2); settings: GP2d (KRAS G12D) cells
Procedure, shortened: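 HTRF read-out of pERK (excitation 320 nm, emission 615 nm) after lysates sat 4–24 h at room temperature with Eu cryptate and d2 antibodies.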

[2] = target: T1, Avi-KRAS G12D (2-169) GTP/RAF1 RBD-3xFLAG (51-131) (Homo sapiens, UniProt P01116, G12D); experiment: Raf1-KRAS G12D-GTP disruption HTRF assay (Biological Example 3); format: binding; settings: KRAS G12D, GTP-loaded
T1 construct: Avi-KRAS G12D (2-169)
Procedure, shortened: (§1)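 Each KRAS-GTP/RAF1 RBD complex at 50 nM, with 75 nM 3xFLAG-RAF1 RBD (51-131)-Avi, in 50 mM Tris pH 7.5, 100 mM NaCl, 5 mM MgCl2, 0.1% BSA, 0.01% Tween 20, 10% DMSO. Compounds titrated from 30 μM, 10-point 3x series; 1 h at room temperature with shaking. HTRF read, activity as percent of DMSO.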

[3] = target: T2, Avi-KRAS G12C (2-169) GTP/RAF1 RBD-3xFLAG (51-131) (Homo sapiens, UniProt P01116, G12C); experiment: Raf1-KRAS G12C-GTP disruption HTRF assay (Biological Example 3); format: binding; settings: KRAS G12C, GTP-loaded
T2 construct: Avi-KRAS G12C (2-169)
Procedure, shortened: as §1

[4] = target: T3, Avi-KRAS G12V (2-169) GTP/RAF1 RBD-3xFLAG (51-131) (Homo sapiens, UniProt P01116, G12V); experiment: Raf1-KRAS G12V-GTP disruption HTRF assay (Biological Example 3); format: binding; settings: KRAS G12V, GTP-loaded
T3 construct: Avi-KRAS G12V (2-169)
Procedure, shortened: as §1

[5] = target: T4, Avi-KRAS WT (2-169) GTP/RAF1 RBD-3xFLAG (51-131) (Homo sapiens, UniProt P01116); experiment: Raf1-KRAS WT-GTP disruption HTRF assay (Biological Example 3); format: binding; settings: KRAS WT, GTP-loaded
T4 construct: Avi-KRAS WT (2-169)
Procedure, shortened: as §1

[6] = test system: SW620 cells (KRAS G12V); experiment: Cell-based pERK HTRF assay in SW620 cell (Biological Example 4)
Procedure, shortened: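 In SW620 cells grown in RPMI with 10% FBS, a 4 h compound treatment (0.25% DMSO, 9-point curve from 1 μM) preceded lysis. Phospho-ERK levels were then read by time-resolved FRET at 615 nm emission.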

[7] = Homo sapiens, SW-620, SW620 (KRAS G12V) cells

T2 sequence (P01116 2-169 isoform P01116-2 G12C): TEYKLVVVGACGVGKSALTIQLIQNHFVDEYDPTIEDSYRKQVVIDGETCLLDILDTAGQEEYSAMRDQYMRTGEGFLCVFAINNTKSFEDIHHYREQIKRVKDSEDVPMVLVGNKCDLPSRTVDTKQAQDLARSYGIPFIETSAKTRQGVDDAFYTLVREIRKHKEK
T1 sequence (P01116 2-169 isoform P01116-2 G12D): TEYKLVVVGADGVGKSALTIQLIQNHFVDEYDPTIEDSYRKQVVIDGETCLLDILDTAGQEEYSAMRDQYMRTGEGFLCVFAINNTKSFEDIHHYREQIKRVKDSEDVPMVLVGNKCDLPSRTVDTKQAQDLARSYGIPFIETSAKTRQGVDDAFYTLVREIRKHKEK
T4 sequence (P01116 2-169 isoform P01116-2): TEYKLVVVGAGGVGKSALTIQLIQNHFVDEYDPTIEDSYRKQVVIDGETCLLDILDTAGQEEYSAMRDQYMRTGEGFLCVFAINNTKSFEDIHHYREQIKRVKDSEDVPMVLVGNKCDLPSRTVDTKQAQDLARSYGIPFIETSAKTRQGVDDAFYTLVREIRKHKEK
T3 sequence (P01116 2-169 isoform P01116-2 G12V): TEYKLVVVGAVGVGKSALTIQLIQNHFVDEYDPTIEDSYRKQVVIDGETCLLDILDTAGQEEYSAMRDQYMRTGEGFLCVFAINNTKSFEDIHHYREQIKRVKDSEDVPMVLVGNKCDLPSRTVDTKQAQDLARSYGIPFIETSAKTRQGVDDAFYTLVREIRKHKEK

SMILES	IC50 [1]	IC50 [2]	IC50 [3]	IC50 [4]	IC50 [5]	IC50 ([6]; SW620 (KRAS G12V) cells)	IC50 ([1]; GP2d)	IC50 [6, 7]
CN(c1nc(OCC23CCCN2CC(F)C3)nc2c(F)c(-c3ccc(F)c4sc(N)c(C#N)c34)c(C(F)(F)F)cc12)C1CCc2ccncc21 (stereo not drawn) [Compound 961]	< 100 nM	1000 to 10000 nM	> 10000 nM	1000 to 10000 nM	> 10000 nM	< 100 nM	–	–
CCN(c1nc(OC[C@@]23CCCN2C[C@H](F)C3)nc2c(F)c(-c3ccc(F)c4sc(N)c(C#N)c34)c(C(F)(F)F)cc12)[C@H]1CCN(c2ccccn2)C1 [Compound 948]	–	1000 to 10000 nM	1000 to 10000 nM	> 10000 nM	> 10000 nM	–	< 100 nM	< 100 nM
CN(CC1COC1)c1nc(OC[C@@]23CCCN2C[C@H](F)C3)nc2c(F)c(-c3ccc(F)c4sc(N)c(C#N)c34)c(C(F)(F)F)cc12 (atropisomer, axis not shown) [Compound 963]	–	1000 to 10000 nM	> 10000 nM	> 10000 nM	1000 to 10000 nM	–	> 1000 nM	> 1000 nM
CCN(c1nc(OC[C@@]23CCCN2C[C@H](F)C3)nc2c(F)c(-c3ccc(F)c4sc(N)c(C#N)c34)c(C(F)(F)F)cc12)[C@H]1CCN(C(=O)N(C)C)[C@@H]1COC (atropisomer, axis not shown) [Compound 921]	–	100 to 1000 nM	100 to 1000 nM	100 to 1000 nM	100 to 1000 nM	–	< 100 nM	< 100 nM
CCN(c1nc(OC[C@@]23CCCN2C[C@H](F)C3)nc2c(F)c(-c3ccc(F)c4sc(N)c(C#N)c34)c(C(F)(F)F)cc12)[C@H]1C[C@H](COC)N(C(=O)OC2COC2)C1 (atropisomer, axis not shown) [Compound 837]	–	100 to 1000 nM	100 to 1000 nM	100 to 1000 nM	100 to 1000 nM	–	< 100 nM	< 100 nM
CN(C)C(=O)N1CC[C@H](N(CCF)c2nc(OC[C@@]34CCCN3C[C@H](F)C4)nc3c(F)c(-c4ccc(F)c5sc(N)c(C#N)c45)c(C(F)(F)F)cc23)C1 (atropisomer, axis not shown) [Compound 828]	–	100 to 1000 nM	100 to 1000 nM	100 to 1000 nM	1000 to 10000 nM	–	< 100 nM	100 to 1000 nM
CCN(c1nc(OC[C@@]23CCCN2C[C@H](F)C3)nc2c(F)c(-c3ccc(F)c4sc(N)c(C#N)c34)c(C(F)(F)F)cc12)[C@@H]1CCN2C(=O)OC[C@H]12 (atropisomer, axis not shown) [Compound 941]	–	1000 to 10000 nM	1000 to 10000 nM	> 10000 nM	1000 to 10000 nM	–	< 100 nM	< 100 nM
CCN(c1nc(OC[C@@]23CCCN2C[C@H](F)C3)nc2c(F)c(-c3ccc(F)c4sc(N)c(C#N)c34)c(C(F)(F)F)cc12)[C@H]1CCN(C(=O)[C@@H]2C[C@H]2F)[C@@H]1C (atropisomer, axis not shown) [Compound 892]	–	100 to 1000 nM	100 to 1000 nM	100 to 1000 nM	100 to 1000 nM	–	< 100 nM	< 100 nM
CCN(c1nc(OC[C@@]23CCCN2C[C@H](F)C3)nc2c(F)c(-c3ccc(F)c4sc(N)c(C#N)c34)c(C(F)(F)F)cc12)[C@H]1CCN(C(=O)c2ncc(C#N)s2)C1 (atropisomer, axis not shown) [Compound 956]	–	100 to 1000 nM	100 to 1000 nM	100 to 1000 nM	1000 to 10000 nM	–	< 100 nM	< 100 nM
CCN(c1nc(OC[C@@]23CCCN2C[C@H](F)C3)nc2c(F)c(-c3ccc(F)c4sc(N)c(C#N)c34)c(C(F)(F)F)cc12)[C@H]1CCN(C(=O)c2cocn2)[C@@H]1C (atropisomer, axis not shown) [Compound 900]	–	100 to 1000 nM	100 to 1000 nM	100 to 1000 nM	100 to 1000 nM	–	< 100 nM	< 100 nM
CCN(c1nc(OC[C@@]23CCCN2C[C@H](F)C3)nc2c(F)c(-c3ccc(F)c4sc(N)c(C#N)c34)c(C(F)(F)F)cc12)[C@H]1C[C@@H](C)N(C(=O)C2CC2(F)F)C1 (stereo partly drawn) [Compound 877]	–	100 to 1000 nM	1000 to 10000 nM	1000 to 10000 nM	1000 to 10000 nM	–	< 100 nM	< 100 nM
C/C=C/C(=O)N1C[C@@H](N(CC)c2nc(OC[C@@]34CCCN3C[C@H](F)C4)nc3c(F)c(-c4ccc(F)c5sc(N)c(C#N)c45)c(C(F)(F)F)cc23)C[C@@H]1COC (atropisomer, axis not shown) [Compound 845]	–	100 to 1000 nM	100 to 1000 nM	100 to 1000 nM	100 to 1000 nM	–	< 100 nM	< 100 nM
CCN(c1nc(OC[C@@]23CCCN2C[C@H](F)C3)nc2c(F)c(-c3ccc(F)c4sc(N)c(C#N)c34)c(C(F)(F)F)cc12)[C@H]1C[C@H](C)N(C(=O)OC2COC2)C1 (atropisomer, axis not shown) [Compound 926]	–	100 to 1000 nM	100 to 1000 nM	100 to 1000 nM	100 to 1000 nM	–	< 100 nM	< 100 nM

Next, values leading:

IC50 [1]	IC50 [2]	IC50 [3]	IC50 [4]	IC50 [5]	IC50 ([6]; SW620 (KRAS G12V) cells)	IC50 ([1]; GP2d)	IC50 [6, 7]	SMILES
–	100 to 1000 nM	100 to 1000 nM	100 to 1000 nM	100 to 1000 nM	–	< 100 nM	< 100 nM	CCN(c1nc(OC[C@@]23CCCN2C[C@H](F)C3)nc2c(F)c(-c3ccc(F)c4sc(N)c(C#N)c34)c(C(F)(F)F)cc12)[C@H]1CCN(C(=O)OC2CC(F)(F)C2)C1 (atropisomer, axis not shown) [Compound 830]
–	≤ 100 nM	100 to 1000 nM	≤ 100 nM	100 to 1000 nM	–	< 100 nM	< 100 nM	CCN(c1nc(OC[C@@]23CCCN2C[C@H](F)C3)nc2c(F)c(-c3ccc(F)c4sc(N)c(C#N)c34)c(C(F)(F)F)cc12)[C@H]1CCN(C(=O)c2cnc(C)s2)C1 (atropisomer, axis not shown) [Compound 902]
–	100 to 1000 nM	100 to 1000 nM	100 to 1000 nM	100 to 1000 nM	–	< 100 nM	< 100 nM	CCN(c1nc(OC[C@@]23CCCN2C[C@H](F)C3)nc2c(F)c(-c3ccc(F)c4sc(N)c(C#N)c34)c(C(F)(F)F)cc12)[C@H]1CCN(C(=O)OC2CC(OC)C2)[C@@H]1C (stereo partly drawn) [Compound 897]
–	≤ 100 nM	100 to 1000 nM	≤ 100 nM	100 to 1000 nM	–	< 100 nM	< 100 nM	CCN(c1nc(OC[C@@]23CCCN2C[C@H](F)C3)nc2c(F)c(-c3ccc(F)c4sc(N)c(C#N)c34)c(C(F)(F)F)cc12)[C@H]1C[C@H](C)N(C(=O)c2coc(C)n2)C1 (atropisomer, axis not shown) [Compound 915]
–	100 to 1000 nM	100 to 1000 nM	100 to 1000 nM	100 to 1000 nM	–	< 100 nM	< 100 nM	CCN(c1nc(OC[C@@]23CCCN2C[C@H](F)C3)nc2c(F)c(-c3ccc(F)c4sc(N)c(C#N)c34)c(C(F)(F)F)cc12)[C@H]1C[C@H]2CN(C3CCC3)C(=O)N2[C@@H]1C (atropisomer, axis not shown) [Compound 970]
–	100 to 1000 nM	1000 to 10000 nM	1000 to 10000 nM	1000 to 10000 nM	–	< 100 nM	< 100 nM	CCN(c1nc(OC[C@@H]2C[C@@H](OC)CN2C)nc2c(F)c(-c3ccc(F)c4sc(N)c(C#N)c34)c(C(F)(F)F)cc12)[C@H]1CCN(C(=O)OC)C1 [Compound 871]
–	100 to 1000 nM	100 to 1000 nM	100 to 1000 nM	100 to 1000 nM	–	< 100 nM	< 100 nM	CCN(c1nc(OC[C@@]23CCCN2C[C@H](F)C3)nc2c(F)c(-c3ccc(F)c4sc(N)c(C#N)c34)c(C(F)(F)F)cc12)[C@@H]1CCN(C(=O)[C@@H]2CCO2)[C@@H]1C (atropisomer, axis not shown) [Compound 931]
–	≤ 100 nM	100 to 1000 nM	100 to 1000 nM	100 to 1000 nM	–	< 100 nM	< 100 nM	CCN(c1nc(OC[C@@]23CCCN2C[C@H](F)C3)nc2c(F)c(-c3ccc(F)c4sc(N)c(C#N)c34)c(C(F)(F)F)cc12)[C@H]1CCN(C(=O)C2COC2)[C@@H]1C (atropisomer, axis not shown) [Compound 833]
–	≤ 100 nM	≤ 100 nM	≤ 100 nM	100 to 1000 nM	–	< 100 nM	< 100 nM	CCN(c1nc(OC[C@@]23CCCN2C[C@H](F)C3)nc2c(F)c(-c3ccc(F)c4sc(N)c(C#N)c34)c(C(F)(F)F)cc12)[C@H]1CCN(C(=O)O[C@@H]2CO[C@H]3OCC[C@H]32)C1 (atropisomer, axis not shown) [Compound 834]
